Measurements as given in patent publication EP4603105A1, “PHARMACEUTICAL COMPOSITION CONTAINING CYCLIC COMPOUND HAVING SELECTIVE KRAS INHIBITORY EFFECT AGAINST HRAS AND NRAS” (CHUGAI SEIYAKU KABUSHIKI KAISHA, priority 2022, dated 2024).
*1 amine or outer side, *2 acyl side, *3 side chain or, on linkers, in order; H or OH if unused. Where a SMILES comes first, the peptide text is derived from it. Bridges are numbered along the chain shown (N, C = ends). [ ]: non-standard residue; d: D form. The star is where a group is joined. hPhe(3-Cl-4-CF3) = N[C@@H](CCc1ccc(C(F)(F)F)c(Cl)c1)C(=O)O; NPrPhe(4-CF3) = CCCN[C@@H](Cc1ccc(C(F)(F)F)cc1)C(=O)O; X13 = CCCN([C@@H](COC1CCC1)C(=O)[*:2])[*:1]; X8 = CCCN([C@@H](COCCC(C)C)C(=O)[*:2])[*:1]; X35 = CCCN([C@@H](CC(C)C)C(=O)[*:2])[*:1]; NMeGly(cPent) = CN[C@H](C(=O)O)C1CCCC1; NMeD = CN[C@@H](CC(=O)O)C(=O)O; NMeL = CN[C@@H](CC(C)C)C(=O)O; Morpholide = C1CN(*)CCO1; NMeA = CN[C@@H](C)C(=O)O; Aze = O=C(O)[C@@H]1CCN1; Ac4c = NC1(C(=O)O)CCC1; Sar = CNCC(=O)O

Columns and labels:
[1] = system: human lung cancer strain NCI-H441; assay type: cell-based
Procedure, shortened: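 Readout: […] after the ATP-based reagent. Compound: serial dilutions in dimethyl sulfoxide.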

[2] = target: GDP-bound NRAS wild-type protein (Homo sapiens, UniProt P01111); assay: Binding to NRAS by surface plasmon resonance (SPR), KD and KD ratio to KRAS; settings: ratio of KD value for GDP-bound NRAS wild-type protein to KD value for KRAS (SPR)
Chain of GDP-bound NRAS wild-type protein (P01111 whole entry): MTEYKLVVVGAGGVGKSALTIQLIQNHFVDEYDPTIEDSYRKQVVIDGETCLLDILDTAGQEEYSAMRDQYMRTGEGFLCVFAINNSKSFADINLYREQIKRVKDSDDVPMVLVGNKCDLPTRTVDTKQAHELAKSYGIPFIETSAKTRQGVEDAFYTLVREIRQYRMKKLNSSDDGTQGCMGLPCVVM
Procedure, shortened: (§1)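 Affinity is measured by surface plasmon resonance at 30°C against captured, GDP-loaded RAS carrying a biotinylated Avi tag. Compounds are titrated by single-cycle kinetics, and KD comes from a 1:1 fit.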

HRAS wild-type protein = HRAS wild-type protein (Homo sapiens, UniProt P01112); assay: Binding to HRAS by surface plasmon resonance (SPR), KD and KD ratio to KRAS; settings: ratio of KD value for HRAS wild-type protein to KD value for KRAS (SPR)
Chain of HRAS wild-type protein (P01112 whole entry): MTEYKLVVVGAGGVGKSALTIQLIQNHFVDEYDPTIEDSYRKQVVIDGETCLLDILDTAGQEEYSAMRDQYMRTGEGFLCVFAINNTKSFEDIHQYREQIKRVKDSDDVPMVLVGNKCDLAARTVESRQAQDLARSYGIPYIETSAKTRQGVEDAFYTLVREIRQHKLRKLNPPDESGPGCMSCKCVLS
Procedure, shortened: as §1

SMILES	IC50 [1] [nM]	NRAS /KRAS [2]	HRAS /KRAS (HRAS wild-type protein)
CC[C@H](C)[C@@H]1NC(=O)[C@H](CC2CCC2)N(C)C(=O)C[C@@H](C(=O)N(C)C)N(C)C(=O)[C@H](C2CCCC2)N(C)C(=O)C2(CCC2)N(C)C(=O)[C@@H]2CCCN2C(=O)[C@H](CCc2cc(F)c(C(F)(F)F)c(F)c2)NC(=O)CN(C)C(=O)[C@H](Cc2ccc(C)cc2)N2CC/C=C\C[C@@H](C2=O)N(C)C(=O)CN(C)C1=O [PP1802]	5.8	A (a compound having 10 or more and less than 20 is denoted as A)	B (a compound having 3 or more and less than 10 is denoted as B)
CCO[C@@H]1C[C@H]2C(=O)N(C)C3(CCCC3)C(=O)N(C)[C@@H](C3CCCC3)C(=O)N(C)[C@H](C(=O)N(C)C)CC(=O)N(C)[C@@H](CC)C(=O)N[C@@H]([C@@H](C)CC)C(=O)N(C)CC(=O)N(C)[C@H]3C/C=C\CCN(C3=O)[C@@H](Cc3ccc(C(F)(F)F)cc3)C(=O)N(C)CC(=O)N[C@@H](CCc3cc(F)c(C(F)(F)F)c(F)c3)C(=O)N2C1 [PP1804]	3.5	A (a compound having 10 or more and less than 20 is denoted as A)	A (a compound having 10 or more and less than 20 is denoted as A)
CC[C@H](C)[C@@H]1NC(=O)[C@H](CC)N(C)C(=O)C[C@@H](C(=O)N(C)C)N(C)C(=O)[C@H](C2CCCC2)N(C)C(=O)C2(CCCC2)N(C)C(=O)[C@@H]2CCCN2C(=O)[C@H](CCc2cc(F)c(C(F)(F)F)c(F)c2)NC(=O)CN(C)C(=O)[C@H](Cc2ccc(C(F)(F)F)cc2)N2CC/C=C\C[C@@H](C2=O)N(C)C(=O)CN(C)C1=O [PP1805]	7	A (a compound having 10 or more and less than 20 is denoted as A)	A (a compound having 10 or more and less than 20 is denoted as A)
CCO[C@@H]1C[C@H]2C(=O)N(C)C3(CCCC3)C(=O)N(C)[C@@H](C3CCCC3)C(=O)N(C)[C@H](C(=O)N(C)C)CC(=O)N(C)[C@@H](CC)C(=O)N[C@@H]([C@@H](C)CC)C(=O)N(C)CC(=O)N(C)[C@H]3C/C=C\CCN(C3=O)[C@@H](Cc3ccc(C)cc3)C(=O)N(C)CC(=O)N[C@@H](CCc3cc(F)c(C(F)(F)F)c(F)c3)C(=O)N2C1 [PP1806]	4	A (a compound having 10 or more and less than 20 is denoted as A)	B (a compound having 3 or more and less than 10 is denoted as B)
CC[C@H](C)[C@@H]1NC(=O)[C@H](CC)N(C)C(=O)C[C@@H](C(=O)N(C)C)N(C)C(=O)[C@H](C2CCCC2)N(C)C(=O)C2(CCCC2)N(C)C(=O)[C@@H]2CCCN2C(=O)[C@H](CCc2cc(F)c(C(F)(F)F)c(F)c2)NC(=O)CN(C)C(=O)[C@H](Cc2ccc(C)cc2)N2CC/C=C\C[C@@H](C2=O)N(C)C(=O)CN(C)C1=O [PP1807]	5	A (a compound having 10 or more and less than 20 is denoted as A)	B (a compound having 3 or more and less than 10 is denoted as B)
CCO[C@@H]1C[C@H]2C(=O)N(C)C3(CCCC3)C(=O)N(C)[C@@H](C3CCCC3)C(=O)N(C)[C@H](C(=O)N(C)C)CC(=O)N(C)[C@@H](C3CC3)C(=O)N[C@@H]([C@@H](C)CC)C(=O)N(C)CC(=O)N(C)[C@H]3C/C=C\CCN(C3=O)[C@@H](Cc3ccc(C)cc3)C(=O)N(C)CC(=O)N[C@@H](CCc3cc(F)c(C(F)(F)F)c(F)c3)C(=O)N2C1 [PP1808]	8.8	A (a compound having 10 or more and less than 20 is denoted as A)	B (a compound having 3 or more and less than 10 is denoted as B)
CCO[C@@H]1C[C@H]2C(=O)N(C)C3(CCCC3)C(=O)N(C)[C@@H](C3CCCC3)C(=O)N(C)[C@H](C(=O)N(C)C)CC(=O)N(C)[C@@H](CC)C(=O)N[C@@H]([C@@H](C)CC)C(=O)N3CCC[C@H]3C(=O)N(C)[C@H]3C/C=C\CCN(C3=O)[C@@H](Cc3ccc(C)cc3)C(=O)N(C)CC(=O)N[C@@H](CCc3cc(F)c(C(F)(F)F)c(F)c3)C(=O)N2C1 [PP1810]	4.6	A (a compound having 10 or more and less than 20 is denoted as A)	B (a compound having 3 or more and less than 10 is denoted as B)
CC[C@H](C)[C@@H]1NC(=O)[C@H](CC)N(C)C(=O)C[C@@H](C(=O)N(C)C)N(C)C(=O)[C@H](C2CCCC2)N(C)C(=O)C2(CCCC2)N(C)C(=O)[C@@H]2CCCN2C(=O)[C@H](CCc2cc(F)c(C(F)(F)F)c(F)c2)NC(=O)CN(C)C(=O)[C@H](Cc2ccc(C)cc2)N2CC/C=C\C[C@@H](C2=O)N(C)C(=O)[C@@H]2CCCN2C1=O [PP1811]	14.3	A (a compound having 10 or more and less than 20 is denoted as A)	B (a compound having 3 or more and less than 10 is denoted as B)
CC[C@H](C)[C@@H]1NC(=O)[C@H](C2CC2)N(C)C(=O)C[C@@H](C(=O)N(C)C)N(C)C(=O)[C@H](C2CCCC2)N(C)C(=O)C2(CCCC2)N(C)C(=O)[C@@H]2C[C@@H](C)CN2C(=O)[C@H](CCc2cc(F)c(C(F)(F)F)c(F)c2)NC(=O)CN(C)C(=O)[C@H](Cc2ccc(C)cc2)N2CC/C=C\C[C@@H](C2=O)N(C)C(=O)CN(C)C1=O [PP1813]	22.6	A (a compound having 10 or more and less than 20 is denoted as A)	B (a compound having 3 or more and less than 10 is denoted as B)
CC[C@H](C)[C@@H]1NC(=O)[C@H](CC)N(C)C(=O)C[C@@H](C(=O)N(C)C)N(C)C(=O)[C@H](C2CCCC2)N(C)C(=O)C2(CCCC2)N(C)C(=O)[C@@H]2C[C@@H](C)CN2C(=O)[C@H](CCc2cc(F)c(C(F)(F)F)c(F)c2)NC(=O)CN(C)C(=O)[C@H](Cc2ccc(C)cc2)N2CC/C=C\C[C@@H](C2=O)N(C)C(=O)[C@@H]2CCCN2C1=O [PP1814]	26.2	A (a compound having 10 or more and less than 20 is denoted as A)	A (a compound having 10 or more and less than 20 is denoted as A)
CCCN1C(=O)C[C@@H](C(=O)N2CCOCC2)N(C)C(=O)[C@H](C2CCCC2)N(C)C(=O)C2(CCC2)NC(=O)[C@@H]2CCCN2C(=O)[C@H](CCc2ccc(C(F)(F)F)c(Cl)c2)NC(=O)CN(C)C(=O)[C@H](Cc2ccc(C(F)(F)F)cc2)N(CCC)C(=O)CN(C)C(=O)CN(C)C(=O)[C@H](C(C)C)NC(=O)[C@@H]1CC(C)C [PP1815] ([X35]V[Sar][Sar][NPrPhe(4-CF3)][Sar][hPhe(3-Cl-4-CF3)]P[Ac4c][NMeGly(cPent)][NMeD]-Morpholide; lactam N-11)	83	B (a compound having 3 or more and less than 10 is denoted as B)	B (a compound having 3 or more and less than 10 is denoted as B)
CCCN1C(=O)CN(C)C(=O)CN(C)C(=O)[C@H]([C@@H](C)CC)NC(=O)[C@H](CC(C)C)N(C)C(=O)C[C@@H](C(=O)N2CCOCC2)N(C)C(=O)[C@H](C2CCCC2)N(C)C(=O)C2(CCC2)NC(=O)[C@@H]2CCCN2C(=O)[C@H](CCc2ccc(C(F)(F)F)c(Cl)c2)NC(=O)CN(C)C(=O)[C@@H]1COC1CCC1 [PP1816] ([NMeL]I[Sar][Sar][X13][Sar][hPhe(3-Cl-4-CF3)]P[Ac4c][NMeGly(cPent)][NMeD]-Morpholide; lactam N-11)	63.8	B (a compound having 3 or more and less than 10 is denoted as B)	C (A compound having a KD ratio of 0.1 or more and less than 3 is denoted as C)
CCCN1C(=O)CN(C)C(=O)CN(C)C(=O)[C@H]([C@@H](C)CC)NC(=O)[C@H](CC(C)C)N(C)C(=O)C[C@@H](C(=O)N2CCOCC2)N(C)C(=O)[C@H](C2CCCC2)N(C)C(=O)C2(CCC2)NC(=O)[C@@H]2CCCN2C(=O)[C@H](CCc2ccc(C(F)(F)F)c(Cl)c2)NC(=O)CN(C)C(=O)[C@@H]1COCCC(C)C [PP1817] ([NMeL]I[Sar][Sar][X8][Sar][hPhe(3-Cl-4-CF3)]P[Ac4c][NMeGly(cPent)][NMeD]-Morpholide; lactam N-11)	20.4	C (A compound having a KD ratio of 0.1 or more and less than 3 is denoted as C)	C (A compound having a KD ratio of 0.1 or more and less than 3 is denoted as C)
CCCN1C(=O)[C@@H]2CCN2C(=O)[C@H](C)N(C)C(=O)[C@H]([C@@H](C)CC)NC(=O)[C@H](CC(C)C)N(C)C(=O)C[C@@H](C(=O)N2CCOCC2)N(C)C(=O)[C@H](C2CCCC2)N(C)C(=O)C2(CCC2)NC(=O)[C@@H]2CCCN2C(=O)[C@H](CCc2ccc(C(F)(F)F)c(Cl)c2)NC(=O)CN(C)C(=O)[C@@H]1COC1CCC1 [PP1818] ([NMeL]I[NMeA][Aze][X13][Sar][hPhe(3-Cl-4-CF3)]P[Ac4c][NMeGly(cPent)][NMeD]-Morpholide; lactam N-11)	74.8	C (A compound having a KD ratio of 0.1 or more and less than 3 is denoted as C)	B (a compound having 3 or more and less than 10 is denoted as B)
